Reference: patent publication US20250066502A1, “MEDICAMENT FOR TREATMENT AND/OR PREVENTION OF CANCER” (TORAY INDUSTRIES, INC., priority 2021, published 2025)

What was measured:
Type in all cases: cell-based
[1] = tested on: human lung cancer cell line A549; test: THP-1-mediated antibody-dependent phagocytic activity against A549; conditions: THP-1 coculture 2.5 hours
Method: (§1) Specifically, in each combination test group (a romidepsin combination test group, a panobinostat combination test group, and a cisplatin combination test group), the indicated drug used in combination was applied to human cancer cells, and then the cancer cells were cocultured with human monocytic cells (THP-1) in the presence of the anti-CAPRIN-1 antibody, and the antibody-mediated phagocytic activity against the cancer cells by THP-1 was evaluated. […] The concentration of the drug used in combination was set to a concentration that decreased the proliferation rate of the cancer cells by about half at the completion of culture. As a control, a test group without a drug used in combination was established. […] Further, dead cells were stained with propidium iodide (PI) (final concentration: 0.1 μg/mL), followed by the measurement of fluorescence from the cells by flow cytometry. PI-positive dead cells were excluded from analysis. The human monocytic cells THP-1 recognize an antibody bound onto cancer cells and phagocytize the cancer cells. At that time, if the cancer cells have been stained with calcein-AM, the monocytic cells ingesting the cancer cells by phagocytosis also become positive to calcein-AM. Thus, the phagocytic activity in this evaluation system was calculated as the ratio (%) of APC-positive/calcein-AM-positive cells to the whole calcein-AM-positive population.

[2] = tested on: human colon cancer cell line HCT116; test: THP-1-mediated antibody-dependent phagocytic activity against HCT116; conditions: panobinostat combination test group (10 nM, 2 days) with anti-CAPRIN-1 antibody, THP-1 coculture 2.5 hours
Method: as §1

[3] = tested on: human ovarian cancer cell line TOV-21G; test: THP-1-mediated antibody-dependent phagocytic activity against TOV-21G; conditions: panobinostat combination test group (30 nM, 2 days) with anti-CAPRIN-1 antibody, THP-1 coculture 1 hour
Method: (§2) Specifically, in each combination test group (a romidepsin combination test group and a panobinostat combination test group), the indicated drug used in combination was applied to human cancer cells, and then the cancer cells were cocultured with human monocytic cells (THP-1) in the presence of the anti-CAPRIN-1 antibody, and the antibody-mediated phagocytic activity against the cancer cells by THP-1 was evaluated. […] As a control, a test group without a drug used in combination was established. […] Further, dead cells were stained with propidium iodide (PI) (final concentration: 0.1 μg/mL), followed by the measurement of fluorescence from the cells by flow cytometry. PI-positive dead cells were excluded from analysis. The human monocytic cells THP-1 recognize an antibody bound onto cancer cells and phagocytize the cancer cells. At that time, if the cancer cells have been stained with calcein-AM, the monocytic cells ingesting the cancer cells by phagocytosis also become positive to calcein-AM. Thus, the phagocytic activity in this evaluation system was calculated as the ratio (%) of APC-positive/calcein-AM-positive cells to the whole calcein-AM-positive population.

[4] = tested on: human prostate cancer cell line DU145; test: THP-1-mediated antibody-dependent phagocytic activity against DU145; conditions: THP-1 coculture 2.5 hours
Method: as §1

[5] = tested on: human breast cancer cell line MDA-MB-231; test: THP-1-mediated antibody-dependent phagocytic activity against MDA-MB-231; conditions: panobinostat combination test group (30 nM, 2 days) with anti-CAPRIN-1 antibody, THP-1 coculture 1 hour
Method: as §2

[6] = tested on: human uterus cancer cell line MFE-296; test: THP-1-mediated antibody-dependent phagocytic activity against MFE-296; conditions: romidepsin combination test group (20 nM, 2 days) with anti-CAPRIN-1 antibody, THP-1 coculture 1 hour
Method: as §2

[7] = tested on: human bile duct cancer cell line KKU-100; test: THP-1-mediated antibody-dependent phagocytic activity against KKU-100; conditions: romidepsin combination test group (2 nM, 2 days) with anti-CAPRIN-1 antibody, THP-1 coculture 1 hour
Method: as §2

[8] = panobinostat combination test group (10 nM, 2 days) with anti-CAPRIN-1 antibody
[9] = romidepsin combination test group (1 nM, 2 days) with anti-CAPRIN-1 antibody

Structure (SMILES): N.N.[Cl][Pt][Cl] [cisplatin]
- phagocytic activity against cancer cells ([1]; cisplatin combination test group (20 μM, 2 days) with anti-CAPRIN-1 antibody): 13%

Structure (SMILES): Cc1[nH]c2ccccc2c1CCNCc1ccc(/C=C/C(=O)NO)cc1 [panobinostat, (2E)-N-Hydroxy-3-[4-({[2-(2-methyl-TH-indol-3-yl)ethyl]amino}methyl)phenyl]prop-2-enamide]
- phagocytic activity against cancer cells [2]: 32%
- phagocytic activity against cancer cells [3]: 81%
- phagocytic activity against cancer cells [4, 8]: 8%
- phagocytic activity against cancer cells [1, 8]: 15%
- phagocytic activity against cancer cells [5]: 41%

Structure (SMILES): C/C=C1\NC(=O)[C@H]2CSSCC/C=C/[C@H](CC(=O)N[C@H](C(C)C)C(=O)N2)OC(=O)[C@H](C(C)C)NC1=O [romidepsin, (1S,4S,10S,16E,21R)-7-[(2Z)-ethylidene]-4,21-bis(1-methylethyl)-2-oxa-12,13-dithia-5,8,20,23-tetraazabicyclo[8.7.6]tricos-16-ene-3,6,9,19,22-pentone]
- phagocytic activity against cancer cells [6]: ≥ 27%
- phagocytic activity against cancer cells [4, 9]: 8%
- phagocytic activity against cancer cells [7]: ≥ 14%
- phagocytic activity against cancer cells [1, 9]: 29%
